Columns and labels:
[1] = biological target: T1, GST tagged LXRalpha LBD (ligand binding domain) (Homo sapiens, UniProt Q13133); test: LanthaScreen TR-FRET Liver X Receptor Coactivator Assay, LXR alpha-LBD (co-activator recruitment; IP and % Emax relative to T0901317); type: biochemical; conditions: for LXR alpha IP (nM) / EC50: Inflection Point of co-activator recruitment, LXR alpha-LBD, TR-FRET; for Emax: efficacy at max dose in relation to reference T0901317, LXR alpha-LBD, read-out: LXR alpha actiivty at max dose (%)
T1 construct: purchased Invitrogen pv4655
T1 sequence (Q13133 209-447 limits assumed): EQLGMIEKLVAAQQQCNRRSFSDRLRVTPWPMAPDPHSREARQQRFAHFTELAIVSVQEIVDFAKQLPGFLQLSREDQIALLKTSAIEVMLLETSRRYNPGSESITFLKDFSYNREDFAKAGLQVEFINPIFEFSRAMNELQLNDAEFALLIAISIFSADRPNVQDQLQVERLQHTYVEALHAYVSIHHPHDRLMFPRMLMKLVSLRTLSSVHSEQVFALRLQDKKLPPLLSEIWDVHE
How it was run: (§1)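 Coactivator recruitment is scored against T0901317 as reference dual agonist, giving inflection-point potency and Emax. Compounds met the GST-LBD protein first, then a mix of terbium anti-GST antibody and fluorescein coactivator peptide. TR-FRET was measured after incubation at room temperature.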

[2] = biological target: T2, GST tagged LXRbeta LBD (ligand binding domain) (Homo sapiens, UniProt P55055); test: LanthaScreen TR-FRET Liver X Receptor Coactivator Assay, LXR beta-LBD (co-activator recruitment; IP and % Emax relative to T0901317); type: biochemical; conditions: for EC50: Inflection Point of co-activator recruitment, LXR beta-LBD, TR-FRET; for Emax: efficacy at max dose in relation to reference T0901317, LXR beta-LBD, read-out: LXR beta actiivty at max dose (%)
T2 construct: purchased Invitrogen pv4658.pps
T2 sequence (P55055 222-460 limits assumed): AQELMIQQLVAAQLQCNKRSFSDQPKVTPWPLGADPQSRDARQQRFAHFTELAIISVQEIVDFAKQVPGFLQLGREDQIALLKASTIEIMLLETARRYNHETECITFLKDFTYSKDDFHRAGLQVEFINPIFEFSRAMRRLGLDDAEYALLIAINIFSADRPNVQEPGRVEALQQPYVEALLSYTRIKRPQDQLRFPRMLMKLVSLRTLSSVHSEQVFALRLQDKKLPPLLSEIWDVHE
How it was run: as §1

LXR alpha IP (nM) [1] | Emax [1] | EC50 [2] | Emax [2] | EC50 [1] | SMILES
No IP | 0% | 523 nM | 47% | – | COc1cccc([C@@](O)(C(=O)N(C)CCCC2CCN(c3ccc(C(=O)N(C)C)c(OC)n3)CC2)C(F)(F)F)c1 [Example 2-18, (R)-2-methoxy-N,N-dimethyl-6-(4-(3-(3,3,3-trifluoro-2-hydroxy-2-(3-methoxyphenyl)-N-methylpropanamido)propyl)piperidin-1-yl)nicotinamide]
– | 23% | 128 nM | 76% | 2610 nM | CN(C)C(=O)c1ccc(N2CCC(CCCN(C)C(=O)[C@](O)(c3ccccc3)C(F)(F)F)CC2)nc1C#N [Example 2-19, (R)-2-cyano-N,N-dimethyl-6-(4-(3-(3,3,3-trifluoro-2-hydroxy-N-methyl-2-phenylpropanamido)propyl)piperidin-1-yl)nicotinamide]
No IP | 0% | 271 nM | 64% | – | COc1cccc([C@@](O)(C(=O)N(C)CCCC2CCN(c3ccc(C(=O)N(C)C)c(C)n3)CC2)C(F)(F)F)c1 [Example 2-20, (R)-N,N,2-trimethyl-6-(4-(3-(3,3,3-trifluoro-2-hydroxy-2-(3-methoxyphenyl)-N-methylpropanamido)propyl)piperidin-1-yl)nicotinamide]
– | 26% | 1910 nM | 30% | 5940 nM | COc1cccc([C@@](O)(C(=O)N(C)CCCC2CCN(c3cc(Cl)c(C(=O)N(C)C)cn3)CC2)C(F)(F)F)c1 [Example 2-21, (R)-4-chloro-N,N-dimethyl-6-(4-(3-(3,3,3-trifluoro-2-hydroxy-2-(3-methoxyphenyl)-N-methylpropanamido)propyl)piperidin-1-yl)nicotinamide]
No IP | 2% | 1120 nM | 32% | – | COc1cccc([C@@](O)(C(=O)N(C)CCCC2CCN(c3ncc(C(=O)N(C)C)cc3Cl)CC2)C(F)(F)F)c1 [Example 2-22, (R)-5-chloro-N,N-dimethyl-6-(4-(3-(3,3,3-trifluoro-2-hydroxy-2-(3-methoxyphenyl)-N-methylpropanamido)propyl)piperidin-1-yl)nicotinamide]
No IP | 6% | 373 nM | 49% | – | COc1cccc([C@@](O)(C(=O)N(C)CC(F)CC2CCN(c3ccc(C(=O)N(C)C)c(Cl)n3)CC2)C(F)(F)F)c1 (stereo partly drawn) [Example 3-3, 2-chloro-6-(4-(2-fluoro-3-((R)-3,3,3-trifluoro-2-hydroxy-2-(3-methoxyphenyl)-N-methylpropanamido)propyl)piperidin-1-yl)-N,N-dimethylnicotinamide]
No IP | 19% | 134 nM | 87% | – | COc1cccc([C@@](O)(C(=O)NC[C@@H](C)CC2CCN(c3ccc(C(=O)N(C)C)c(Cl)n3)CC2)C(F)(F)F)c1 [Example 3-4, 2-chloro-N,N-dimethyl-6-(4-((S)-2-methyl-3-((R)-3,3,3-trifluoro-2-hydroxy-2-(3-methoxyphenyl)propanamido)propyl)piperidin 1-yl)nicotinamide]
– | 22% | 156 nM | 57% | 2890 nM | COc1cccc([C@@](O)(C(=O)NC[C@H](C)CC2CCN(c3ccc(C(=O)N(C)C)c(Cl)n3)CC2)C(F)(F)F)c1 [Example 3-5]
No IP | 7% | 961 nM | 38% | – | COc1cccc([C@@](O)(C(=O)NC[C@@H](F)CC2CCN(c3ccc(C(=O)N(C)C)c(Cl)n3)CC2)C(F)(F)F)c1 [Example 3-6]
No IP | 13% | 425 nM | 94% | – | COc1cccc([C@@](O)(C(=O)NC[C@H](F)CC2CCN(c3ccc(C(=O)N(C)C)c(Cl)n3)CC2)C(F)(F)F)c1 [Example 3-7, 2-chloro-6-(4-((R)-2-fluoro-3-((R)-3,3,3-trifluoro-2-hydroxy-2-(3-methoxy-phenyl)propanamido)propyl)piperidin-1-yl)-N,N-dimethylnicotinamide]
No IP | 8% | 247 nM | 59% | – | COc1cccc([C@@](O)(C(=O)N(C)CCCC2CCN(c3ccc(C(=O)N(C)C)c(Cl)c3)CC2)C(F)(F)F)c1 [Example 4-1, (R)-2-chloro-N,N-dimethyl-4-(4-(3-(3,3,3-trifluoro-2-hydroxy-2-(3-methoxyphenyl)-N-methylpropanamido)propyl)piperidin-1-yl)benzamide]
No IP | 0% | 217 nM | 49% | – | CCOc1cccc([C@@](O)(C(=O)N(C)CCCC2CCN(c3ccc(C(=O)N(C)C)c(Cl)c3)CC2)C(F)(F)F)c1 [Example 4-2, (R)-2-chloro-4-(4-(3-(2-(3-ethoxyphenyl)-3,3,3-trifluoro-2-hydroxy-N-methylpropanamido)propyl)piperidin-1-yl)-N,N-dimethylbenzamide]
No IP | 0% | 67 nM | 53% | – | CN(C)C(=O)c1ccc(N2CCC(CCCN(C)C(=O)[C@](O)(c3cccc(C4CC4)c3)C(F)(F)F)CC2)cc1Cl [Example 4-3, (R)-2-chloro-4-(4-(3-(2-(3-cyclopropylphenyl)-3,3,3-trifluoro-2-hydroxy-N-methylpropanamido)propyl)piperidin-1-yl)-N,N-dimethylbenzamide]
No IP | 8% | 229 nM | 50% | – | CN(C)C(=O)c1ccc(N2CCC(CCCN(C)C(=O)C(C)(C)c3ccccc3)CC2)cc1Cl [Example 4-5, 2-chloro-4-(4-(3-(N,2-dimethyl-2-phenylpropanamido)propyl)piperidin-1-yl)-N,N-dimethylbenzamide]
– | 23% | 471 nM | 73% | 3350 nM | CC(C)C(O)(C(=O)N(C)CCCC1CCN(c2ccc(C(=O)N(C)C)c(Cl)c2)CC1)C(F)(F)F (stereo not drawn) [Example 4-8, 2-chloro-4-(4-(3-(2-hydroxy-N,3-dimethyl-2-(trifluoromethyl)butanamido)propyl)piperidin-1-yl)-N,N-dimethyl-benzamide]
No IP | 10% | 162 nM | 67% | – | CC(C)N(C)C(=O)c1ccc(N2CCC(CCCN(C)C(=O)[C@](O)(c3ccccc3)C(F)(F)F)CC2)cc1Cl [Example 4-10, (R)-2-chloro-N-isopropyl-N-methyl-4-(4-(3-(3,3,3-trifluoro-2-hydroxy-N-methyl-2-phenylpropanamido)propyl)piperidin-1-yl)benzamide]
No IP | 0% | 120 nM | 40% | – | CN(C)C(=O)c1ccc(N2CCC(CCCCN(C)C(=O)C(O)(c3ccccc3)C(F)(F)F)CC2)cc1Cl (stereo not drawn) [Example 4-11, 2-chloro-N,N-dimethyl-4-(4-(4-(3,3,3-trifluoro-2-hydroxy-N-methyl-2-phenylpropanamido)butyl)piperidin-1-yl)benzamide]
– | 14% | 610 nM | 95% | 3510 nM | CN(C)C(=O)c1ccc(N2CCC(CCCNC(=O)C(O)(c3ccccc3)C(F)(F)F)CC2)cc1Cl (stereo not drawn) [Example 5-1, 2-chloro-N,N-dimethyl-4-(4-(3-(3,3,3-trifluoro-2-hydroxy-2-phenylpropanamido)propyl)piperidin-1-yl)benzamide]
No IP | 11% | 686 nM | 80% | – | CC(C)C(O)(C(=O)NCCCC1CCN(c2ccc(C(=O)N(C)C)c(Cl)c2)CC1)C(F)(F)F (stereo not drawn) [Example 5-2, 2-chloro-4-(4-(3-(2-hydroxy-3-methyl-2-(trifluoromethyl)butanamido)propyl)piperidin-1-yl)-N,N-dimethyl-benzamide]
– | 27% | 380 nM | 118% | 1670 nM | CN(C)C(=O)c1ccc(N2CCC(CCCNC(=O)C(O)(c3ccccc3)C(F)(F)C(F)(F)F)CC2)cc1Cl (stereo not drawn) [Example 5-3, 2-chloro-N,N-dimethyl-4-(4-(3-(3,3,4,4,4-pentafluoro-2-hydroxy-2-phenyl-butanamido)propyl)piperidin-1-yl)benzamide]

SMILES | LXR alpha IP (nM) [1] | Emax [1] | EC50 [2] | Emax [2] | EC50 [1]
CCN(CC)C(=O)c1ccc(N2CCC(CCCN(C)C(=O)[C@](O)(c3cccc(OC)c3)C(F)(F)F)CC2)cc1Cl [Example 4-9, (R)-2-chloro-N,N-diethyl-4-(4-(3-(3,3,3-trifluoro-2-hydroxy-2-(3-methoxyphenyl)-N-methylpropanamido)propyl)piperidin-1-yl)benzamide] | No IP | 0% | 72 nM | 40% | –

Reference: US10961215B2, “N-aryl and N-heteroaryl piperidine derivatives as liver X receptor beta agonists, compositions, and their use” (Merck Sharp & Dohme Corp., priority 2016, dated 2021)
